Results published in patent US7727511B2, “Agents for imaging soluble a-beta” (priority 2003, dated 2010).

Tests used:
[1] = biological target: T1, beta-amyloid 1-42 oligomer (20% biotin) (Homo sapiens, UniProt P05067); experiment: Scintillation proximity assay (SPA), direct/saturation binding of tritium labeled probe to soluble oligomers
T1 construct: 12 μg beta-amyloid 1-42 oligomer (20% biotin); purchased Bachem H-5642; host or cells: synthetic peptide
Procedure: To prepare soluble oligomer, the film was dissolved in appropriate amount of dry DMSO (Sigma), and Ham's F12 media (Biosource) or PBS (Sigma, D8537) was added and incubated at 4° C. for 24 hours (final concentration of 200 uM or 0.9 mg/mL beta-amyloid in 2% DMSO). The tube containing the soluble oligomers was centrifuged at 13,000 rpm for 5 mins, and its supernatant was transferred to a clean tube.
For SPA and atomic force microscopy (AFM) experiments, preparations of soluble oligomers and fibrils contained 20% biotinylated beta-amyloid 1-42 and 1-40, respectively (H-5642, H-5914, Bachem).
For the saturation-binding assay, isotopic dilution of radiolabeled 49b with unlabeled 49b was performed. ^3H-49b was added to 500 uM of unlabeled 49b to a final concentration of 50 μCi/mL ^3H-49b. The probe solution was then serially diluted in PBS to give six solutions giving 6.6, 13.1, 26.3, 52.5, 105, or 210 uM in the final assay well. Each concentration of the probe solution was incubated with 12 μg beta-amyloid 1-42 oligomer (20% biotin) or 1-40 (20% biotin) fibrils in a total volume of 90 μl. Assays were incubated at room temp for 2 hrs before addition of 10 μL YSi-streptavidin (0.25 mg) SPA bead. Assays were set-up in triplicate in 96-well NBS plates (Costar). Assays were incubated overnight and counted the following morning. […] Assay conditions were the same as described in saturation binding assay.
A direct binding assay using tritium labeled 49b was performed against oligomers or fibrils by scintillation proximity assay (SPA). Beta-amyloid containing 20% biotin and tritiated 49b were incubated in solution for two hours prior to addition of the Ysi-Streptavidin beads.

[2] = biological target: T1, beta-amyloid 1-42 oligomer (20% biotin); experiment: SPA competition binding assay against 3H-49b on soluble oligomers; settings: 50 uM unlabeled competitor, 130 nM 3H-49b
Procedure: Lyophilized Streptavidin-Ysi beads (GE Healthcare) were reconstituted to 100 mg/mL in deioniozed water, and then further diluted in deionized water to give a suspension containing 0.25 mg/10 μl water. Unlabeled 49b and other benzofuran probes were dissolved in DMSO to give a final stock concentration of 15 mM.
For the saturation-binding assay, isotopic dilution of radiolabeled 49b with unlabeled 49b was performed. ^3H-49b was added to 500 uM of unlabeled 49b to a final concentration of 50 μCi/mL ^3H-49b. The probe solution was then serially diluted in PBS to give six solutions giving 6.6, 13.1, 26.3, 52.5, 105, or 210 uM in the final assay well. Each concentration of the probe solution was incubated with 12 μg beta-amyloid 1-42 oligomer (20% biotin) or 1-40 (20% biotin) fibrils in a total volume of 90 μl. Assays were incubated at room temp for 2 hrs before addition of 10 μL YSi-streptavidin (0.25 mg) SPA bead. Assays were set-up in triplicate in 96-well NBS plates (Costar). Assays were incubated overnight and counted the following morning. […] The specific activities of the four probes were different, however the level of activity was the same at the concentrations where the probes were tested. For this assay, 130 nM of ^3H-49b, 90 nM ^3H-cimetidine, 14 nM ^3H-caffeine, and 6 nM ^3H-AZT were tested for direct binding to 12 ug of beta-amyloid-42 oligomer (20% biotin). Assay conditions were the same as described in saturation binding assay. […]
Data analyses were performed using Sigma Plot or GraphPad Prism® version 4. Curves were fitted using non-linear regression. KD values and IC50 values were estimated from the binding curves.
For the competition binding assay between tritium-labeled 49b and various unlabeled benzofuran analogs, assays contained 130 nM ^3H-49b and 50 uM of each of the unlabeled benzofuran analogs. As controls, 10 uM and 50 uM of unlabeled 49b were included in the assays.

[3] = biological target: T2, beta-amyloid soluble oligomers (Homo sapiens, UniProt P05067); experiment: Ex vivo fluorescent binding assay, pre-formed soluble oligomers on naive rat brain sections; settings: 50 μM probe, naive rat brain section, fluorescence microscopy
T2 construct: 1 mg of human beta-amyloid 1-42 (H-5642, Bachem); purchased Bachem H-5642; host or cells: synthetic peptide
Procedure: A. 1 mg of human beta-amyloid 1-42 (H-5642, Bachem) and 500 uL of 1,1,1,3,3,3 hexafluoro-2-propanol (HFIP) (Aldrich) were chilled in separate bottles on ice for 30 mins. Cold beta-amyloid 1-42 was solubilized with cold HFIP. The mixture was incubated for 1 hr at room temperature until it turned clear. The resulting solution was then dried to a film under vacuum. The film was dissolved again in cold HFIP and incubated another 1 hr at room temperature. The resulting solution was separated into aliquots in several microcentrifuge tubes. HFIP was removed under vacuum, and the films were stored at −20° C. until use. […]
(§1) A 1/100th dilution of the secondary antibody Alexa Fluor 594-goat anti-mouse IgG (Molecular Probes) in PBS was applied onto the slides, and incubated at room temperature for 1.5 hours. […] Microscopic examination and imaging was performed using a Leica wide-field fluorescence microscope using filter cube A (band pass 340-380 nm with a 400 nm dichroic mirror and a long pass 400 nm suppression filter) for 49b, cube E4 (band pass 436 nm with 455 dichroic mirror and a long pass 470 nm suppression filter) for Thioflavin T, and TX2 (band pass 520-600 nm with 595 nm dichroic mirror and 645/75 band pass suppression filter) for 6E10 immunostaining. […]

beta-amyloid fibrils = biological target: T3, beta-amyloid fibrils (Homo sapiens, UniProt P05067); experiment: Ex vivo fluorescent binding assay, pre-formed fibrils on naive rat brain sections; settings: 50 μM probe, naive rat brain section, fluorescence microscopy
T3 construct: Lyophilized human beta-amyloid 1-40 peptide (Catalog number H-1194, Bachem); purchased Bachem H-1194; host or cells: synthetic peptide
Procedure: B. Insoluble A-beta (1-40) fibril formation: Lyophilized human beta-amyloid 1-40 peptide (Catalog number H-1194, Bachem) was solubilized with HFIP to produce a dry clear film following the process described above for beta-amyloid 1-42. The clear film of beta-amyloid 1-40 was diluted with distilled water to achieve a 6 mg/mL concentration. […] The clear solution was diluted to 1 mg/mL with PBS, pH 7.4 to obtain a final concentration of 1 mg/mL beta-amyloid 1-40, and then incubated at 37° C. on an orbital shaker at 200 RPM for 4 days. A cloudy solution was produced, and the fibril production was confirmed by measuring changes in fluorescence of Thioflavin T, as well as by atomic force microscopy and transmission electron microscopy. […]
as §1

T1 sequence (P05067 672-713 limits assumed): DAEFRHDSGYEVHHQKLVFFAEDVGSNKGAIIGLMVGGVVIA
T3 sequence (P05067 672-711 limits assumed): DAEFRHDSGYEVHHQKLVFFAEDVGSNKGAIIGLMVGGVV
T2 sequence (P05067 672-713 limits assumed): as the sequence (P05067 672-713 limits assumed) above

- Kd ([1]; SPA saturation binding of 3H-49b, isotopic dilution with unlabeled 49b): 50 µM
- Bmax ([1]; SPA saturation binding, oligomers): 60-80 nmol/mg beta-amyloid
- molar ratio probe : beta-amyloid ([1]; from Bmax, oligomers): 1 probe: 3-4 beta-amyloid
- inhibition at 50 µM [2]: 61%
- staining of immobilized fibrils (beta-amyloid fibrils): No staining was observed
SMILES: O=Cc1ccc(-c2oc3ccccc3c2CO)o1 [Compound 49b, 2-(2-formyl-5-furanyl)-3-hydroxymethyl benzofuran]
- staining of immobilized oligomers [3]: clear staining of oligomers with low background
